Measured values from US8623859B2, “Bradykinin B1 antagonists” (Evotec AG, priority 2008, dated 2014).
Structures can show the parent of a compound that is named as a salt.

Molecular target: T1, human B1 (Homo sapiens, UniProt P46663)
T1 construct: host or cells: CHO-K1
T1 sequence (P46663 1-353): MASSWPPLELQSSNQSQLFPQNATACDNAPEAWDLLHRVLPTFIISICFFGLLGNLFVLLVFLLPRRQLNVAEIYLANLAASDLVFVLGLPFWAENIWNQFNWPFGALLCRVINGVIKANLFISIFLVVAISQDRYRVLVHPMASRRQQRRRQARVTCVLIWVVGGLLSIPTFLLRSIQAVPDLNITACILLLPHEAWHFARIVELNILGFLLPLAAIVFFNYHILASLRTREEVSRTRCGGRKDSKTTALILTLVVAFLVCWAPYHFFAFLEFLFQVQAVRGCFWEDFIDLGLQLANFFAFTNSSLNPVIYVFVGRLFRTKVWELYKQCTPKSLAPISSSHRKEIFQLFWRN
Experiment: Calcium flux assay for Bradykinin B1 antagonist, CHO-K1 cell line expressing human B1
Format: cell-based
Conditions: CHO-K1 cells expressing human B1, agonist Lys-(Des-Arg)-Bradykinin, read-out: Potency (IC50 value against human B1)
Description: Calcium Flux Assay for Bradykinin B1 Antagonist
The potency to inhibit the Bradykinin B1 receptors was determined for the compounds of this invention in a cell-based fluorescent calcium-mobilization assay. The assay measures the ability of test compounds to inhibit Bradykinin B1 receptor agonist-induced increase of intracellular free Ca^2+ in cell lines expressing B1.
The change of the intracellular Ca^2+ concentration is monitored with a specifically designed fluorescent plate reader (FlexStation, Molecular Devices).
CHO-K1 cell line expressing human B1 was purchased from Euroscreen (Gosselies, Belgium, with reference name hBl-D1). CHO-K1 cell lines expressing rat B1 or mouse B1 were established in the following way: the full-length receptor-coding cDNA clones were obtained by PCR performed on rat or mouse brain cDNAs. The respective cDNAs were cloned into an expression vector under the control of a CMV promotor. The resultant plasmids were introduced into CHO-K1 cells with liposome technology (FuGENE; Roche Diagnostics, Basel), according to the standard protocols described by the manufacturer. Cell lines expressing a Bradykinin receptor were selected in the culture medium containing 400 μg/ml G418 (Sigma). From selected cell populations, monoclonal cell lines were isolated by single cell cloning. The expression of Bradykinin receptors was confirmed by immunofluorescence staining of the cells, as well as by calcium flux assay.
Human B1-expressing cells were grown in Nutrient Mixture Ham's F12 (Sigma) containing 10% Foetal bovine serum (Sigma) and 400 μg/ml G418 (Sigma), 5 μg/ml puromycim (Sigma); Rat B1 and mouse B1-expressing cells were grown in DMEM/F12 medium (Sigma) containing 10% Foetal bovine serum (Sigma) and 400 μg/ml G418 (Sigma).
For the calcium flux assay, 80% confluent cells were detached from the culture vessels with Versene (Gibco; for human B1 cell-line) or with 1× trypsin-EDTA solution (Sigma; for rodent B1 cell-line), and seeded into 384-well plates (Cell binding Surface; Corning, N.Y.; #3683) at a density of 15,000 cells per well for human B1 or at a density of 20,000 cells per well for rodent B1. Cells were seeded in a volume of 50 μl in medium without antibiotics and incubated overnight in a humidified atmosphere with 5% CO2 at 37° C. The following day, the medium was replaced with 20 μl of 5 μM Fluo-4AM dye (Molecular Probes) in assay buffer (2.5 mM probenicid, 1 mg/ml pluronic acid, 0.1% BSA, 135 mM NaCl, 5 mM KCl, 1.8 mM CaCl, 1 mM MgCl2, 10 mM HEPES, 5.6 mM glucose, 0.05% gelatine, pH 7.4). The calcium indicator loaded cells were incubated at 37° C. for 2 hrs. Extracellular dye was then removed and each well was filled with 45 μl of assay buffer. Cell plates were kept in dark until used. Test compounds were assayed at 8 concentrations in triplicate. Serial 10-fold dilutions in 100% DMSO were made at a 100-times higher concentration than the final concentration, and then diluted 1:10 in assay buffer. 5 μl of each diluted compound was added to the well of cell plates (yielding final concentration with 1% DMSO), and incubated for 30 min at 25° C. before the addition of B1 agonist on the FlexStation.
The addition of agonist 20 μl per well to the assay plate was carried out on the FlexStation while continuously monitoring Ca^2+-dependent fluorescence at 538 nm. The integrated values, normalized with the background fluorescence, were plotted against the logarithm of the antagonist concentrations.

## COc1cc(C)c(S(=O)(=O)N(Cc2cc(C(=O)NCc3ccc(CN4CCCC4)cc3)co2)C2CC2)c(C)c1 [Ex 56, 5-({Cyclopropyl[(4-methoxy-2,6-dimethylphenyl)sulfonyl]amino}methyl)-N-[4-(pyrrolidin-1-ylmethyl)benzyl]furan-3-carboxamide]
  IC50: 0.01 to 0.1 µM

## COc1cc(C)c(S(=O)(=O)N(C)Cc2cc(C(=O)N(C)CCc3ccc(C4=NCCN4)cc3)c(C)o2)c(C)c1 [Ex 59, N-{2-[4-(4,5-dihydro-1H-imidazol-2-yl)phenyl]ethyl}-5-({[(4-methoxy-2,6-dimethylphenyl)sulfonyl](methyl)amino}methyl)-N,2-dimethylfuran-3-carboxamide]
  IC50: 0.1 to 1 µM

## COc1cc(C)c(S(=O)(=O)N(Cc2cc(C(=O)N3CCN(CCN4CCCCC4)CC3)co2)C2CC2)c(C)c1 [Ex 109, N-Cyclopropyl-4-methoxy-2,6-dimethyl-N-[(4-{[4-(2-piperidin-1-ylethyl)piperazin-1-yl]carbonyl}furan-2-yl)methyl]benzenesulfonamide trifluoroacetate]
  IC50: 0.1 to 1 µM

## COc1cc(C)c(S(=O)(=O)N(Cc2nc(C(=O)N3CCN(Cc4cccnc4)CC3)co2)C2CC2)c(C)c1 [Ex 163, N-Cyclopropyl-4-methoxy-2,6-dimethyl-N-[(4-{[4-(pyridin-3-ylmethyl)piperazin-1-yl]carbonyl}-1,3-oxazol-2-yl)methyl]benzenesulfonamide trifluoroacetate]
  IC50: < 0.01 µM

## COc1cc(C)c(S(=O)(=O)N(C)Cc2cc(C(=O)NCc3ccc(CN4CCCC4)cc3)co2)c(C)c1 [Ex 37, 5-({[(4-methoxy-2,6-dimethylphenyl)sulfonyl](methyl)amino}methyl)-N-[4-(pyrrolidin-1-ylmethyl)benzyl]furan-3-carboxamide]
  IC50: 0.1 to 1 µM

## COc1cc(C)c(S(=O)(=O)N(C)Cc2nc(C(=O)N(C)Cc3ccc(C4=NCCN4)cc3)co2)c(C)c1 [Ex 70, N-[4-(4,5-dihydro-1H-imidazol-2-yl)benzyl]-2-({[(4-methoxy-2,6-dimethylphenyl)sulfonyl](methyl)amino}methyl)-N-methyl-1,3-oxazole-4-carboxamide]
  IC50: < 0.01 µM

## COc1cc(C)c(S(=O)(=O)N(Cc2nc(C(=O)N3CCN(Cc4ccc(C(F)(F)F)nc4)CC3)co2)C2CC2)c(C)c1 [Ex 236, N-Cyclopropyl-4-methoxy-2,6-dimethyl-N-({4-[(4-{[6-(trifluoromethyl)pyridin-3-yl]methyl}piperazin-1-yl)carbonyl]-1,3-oxazol-2-yl}methyl)benzenesulfonamide trifluoroacetate]
  IC50: 0.01 to 0.1 µM

## COc1cc(C)c(S(=O)(=O)N(Cc2cc(C(=O)N3CCN(CCc4ccccn4)CC3)co2)C2CC2)c(C)c1 [Ex 114, N-Cyclopropyl-4-methoxy-2,6-dimethyl-N-[(4-{[4-(2-pyridin-2-ylethyl)piperazin-1-yl]carbonyl}furan-2-yl)methyl]benzenesulfonamide trifluoroacetate]
  IC50: 0.1 to 1 µM

## COc1cc(C)c(S(=O)(=O)N(Cc2nc(C(=O)N3CCC(O)(CN4CCN(C)CC4)CC3)co2)C2CC2)c(C)c1 [Ex 223, N-Cyclopropyl-N-{[4-({4-hydroxy-4-[(4-methylpiperazin-1-yl)methyl]piperidin-1-yl}carbonyl)-1,3-oxazol-2-yl]methyl}-4-methoxy-2,6-dimethylbenzenesulfonamide trifluoroacetate]
  IC50: < 0.01 µM

## COc1cc(C)c(S(=O)(=O)N(Cc2cc(C(=O)N(C)CCc3ccc(C4=NCCN4)cc3)co2)C2CC2)c(C)c1 [Ex 84, 5-({cyclopropyl[(4-methoxy-2,6-dimethylphenyl)sulfonyl]amino}methyl)-N-{2-[4-(4,5-dihydro-1H-imidazol-2-yl)phenyl]ethyl}-N-methylfuran-3-carboxamide trifluoroacetate]
  IC50: < 0.01 µM

## COc1cc(C)c(S(=O)(=O)N(Cc2nc(C(=O)N3CCN(CCN4CCCCC4)CC3)co2)C2CC2)c(C)c1 [Ex 194, N-Cyclopropyl-4-methoxy-2,6-dimethyl-N-[(4-{[4-(2-piperidin-1-ylethyl)piperazin-1-yl]carbonyl}-1,3-oxazol-2-yl)methyl]benzenesulfonamide trifluoroacetate]
  IC50: < 0.01 µM

## CN(CCc1ccc(C2=NCCN2)cc1)C(=O)c1coc(CN(C2CC2)S(=O)(=O)c2c(Cl)cccc2Cl)n1 [Ex 213, 2-({Cyclopropyl[(2,6-dichlorophenyl)sulfonyl]amino}methyl)-N-{2-[4-(4,5-dihydro-1H-imidazol-2-yl)phenyl]ethyl}-N-methyl-1,3-oxazole-4-carboxamide trifluoroacetate]
  IC50: 0.1 to 1 µM

## COc1cc(C)c(S(=O)(=O)N(C)Cc2cc(C(=O)NCCc3ccc(CNCC(C)C)cc3)co2)c(C)c1 [Ex 42, 5-({[(4-methoxy-2,6-dimethylphenyl)sulfonyl](methyl)amino}methyl)-N-[2-(4-{[(2-methylpropyl)amino]methyl}phenyl)ethyl]furan-3-carboxamide]
  IC50: 0.1 to 1 µM

## COc1cc(C)c(S(=O)(=O)N(C)Cc2noc(C(=O)N3CCN(CCCCN(C)C)CC3)n2)c(C)c1 [Ex 319, N-{[5-({4-[4-(Dimethylamino)butyl]piperazin-1-yl}carbonyl)-1,2,4-oxadiazol-3-yl]methyl}-4-methoxy-N,2,6-trimethylbenzenesulfonamide trifluoroacetate]
  IC50: 0.1 to 1 µM

## CCN(Cc1cc(C(=O)NCCc2ccc(C3=NCCN3)cc2)co1)S(=O)(=O)c1c(Cl)cccc1Cl [Ex 122, 5-({[(2,6-Dichlorophenyl)sulfonyl](ethyl)amino}methyl)-N-{2-[4-(4,5-dihydro-1H-imidazol-2-yl)phenyl]ethyl}furan-3-carboxamide trifluoroacetate]
  IC50: 0.1 to 1 µM

## COc1cc(C)c(S(=O)(=O)N(Cc2nc(C(=O)N3CCN(Cc4cncn4C)CC3)co2)C2CC2)c(C)c1 [Ex 251, N-Cyclopropyl-4-methoxy-2,6-dimethyl-N-{[4-({4-[(1-methyl-1H-imidazol-5-yl)methyl]piperazin-1-yl}carbonyl)-1,3-oxazol-2-yl]methyl}benzenesulfonamide]
  IC50: 0.1 to 1 µM

## COc1cc(C)c(S(=O)(=O)N(Cc2nnc(C(=O)N3CCN(CCCN(C)C)CC3)o2)C2CC2)c(C)c1 [Ex 276, N-Cyclopropyl-N-{[5-({4-[3-(dimethylamino)propyl]piperazin-1-yl}carbonyl)-1,3,4-oxadiazol-2-yl]methyl}-4-methoxy-2,6-dimethylbenzenesulfonamide]
  IC50: 0.01 to 0.1 µM

## COc1cc(C)c(S(=O)(=O)N(Cc2nc(C(=O)N3CCN(Cc4ccc(OC)nc4)CC3)co2)C2CC2)c(C)c1 [Ex 235, N-Cyclopropyl-4-methoxy-N-{[4-({4-[(6-methoxypyridin-3-yl)methyl]piperazin-1-yl}carbonyl)-1,3-oxazol-2-yl]methyl}-2,6-dimethylbenzenesulfonamide trifluoroacetate]
  IC50: < 0.01 µM

## Cc1cc(O)cc(C)c1S(=O)(=O)N(C)Cc1cc(C(=O)N(C)CCc2ccc(C3=NCCN3)cc2)co1 [Ex 87, N-{2-[4-(4,5-Dihydro-1H-imidazol-2-yl)phenyl]ethyl}-5-({[(4-hydroxy-2,6-dimethylphenyl)sulfonyl](methyl)amino}methyl)-N-methylfuran-3-carboxamide, trifluoroacetate]
  IC50: 0.01 to 0.1 µM

## COc1cc(C)c(S(=O)(=O)N(C)Cc2nc(C(=O)N(C)Cc3ccc(CN4CCC(OC)C4)cc3)co2)c(C)c1 (centres unmarked) [Ex 169, 2-({[(4-Methoxy-2,6-dimethylphenyl)sulfonyl](methyl)amino}methyl)-N-{4-[(3-methoxypyrrolidin-1-yl)methyl]benzyl}-N-methyl-1,3-oxazole-4-carboxamide]
  IC50: < 0.01 µM
